Results from patent publication US7563864B2, “Prolyl endopeptidase mediated destruction of T cell epitopes in whole gluten” (Celiac Sprue Research Foundation, priority 2004, dated 2009).

Columns and labels:
Type in all cases: cell-based, human
Design in all cases: key: −: no response; Stimulatory index (SI; T + APC + TG2-treated peptide divided by T + APC) of 3-10; ++: SI above 10
Conditions in all cases: DQ2+ APC, 5 μM TG2-treated peptide, 3H thymidine incorporation
[1] = test system: intestinal T cell line 502.1.2; assay: T cell proliferation assay, polyclonal T cell line 502.1.2
Description: (§1) T cell assays—The generation of polyclonal gluten-specific T cell lines derived from ex vivo gluten challenged small intestinal biopsy specimens of adult Celiac Sprue patients have been described elsewhere. For this study 14 different intestinal T cell lines derived from 13 DQ2+celiac patients were selected based on two basic criteria; effective recognition of TG2-treated digests of gluten and significant responses to at least two different gluten epitopes (Table 2). The generation of intestinal T cell clones and the epitope specificity of these clones, except TCC 387.3, has been described elsewhere (10). The TCC 387.3 recognizes a TG2-dependent epitope, defined as γ-VI that is contained within residues 62-72 (PQQPFPQQPQQ) of recombinant γ-5 gliadin. The freeze-dried, proteolyzed gluten samples were dissolved in PBS with 2 mM CaCl2 and treated with 150 μg/ml human recombinant TG2 (14) or, in some experiments 200 μg/ml guinea pig transglutaminase (Sigma T-5398), for 2 hours at 37° C. The TG2-treated samples were incubated overnight in triplicates on U-bottomed 96 well plates with 75 000 cells per well of DQ2 homozygous, irradiated (75 Gy) EBV-transformed B-lymphoblastoid cell lines in a volume of 100 μl 15% pooled, inactivated human serum and RPMI1640. After the incubation 50 μl of freshly thawed T cells (1×10^6 cells/ml) were added to each well. The proliferation in the wells was evaluated by ^3H thymidine incorporation from 48-72 hours after the addition of the T cells.

[2] = test system: intestinal T cell line 494.1.1; assay: T cell proliferation assay, polyclonal T cell line 494.1.1
Description: as §1

[3] = test system: intestinal T cell line 437.1.1; assay: T cell proliferation assay, polyclonal T cell line 437.1.1
Description: as §1

[4] = test system: intestinal T cell line 488.3.1; assay: T cell proliferation assay, polyclonal T cell line 488.3.1
Description: as §1

[5] = test system: intestinal T cell line 482.1.4; assay: T cell proliferation assay, polyclonal T cell line 482.1.4
Description: as §1

[6] = test system: intestinal T cell line 432.2.1; assay: T cell proliferation assay, polyclonal T cell line 432.2.1
Description: as §1

[7] = test system: intestinal T cell line 491.1.3; assay: T cell proliferation assay, polyclonal T cell line 491.1.3
Description: as §1

[8] = test system: intestinal T cell line 461.1.4; assay: T cell proliferation assay, polyclonal T cell line 461.1.4
Description: as §1

[9] = test system: intestinal T cell line 496.1.2; assay: T cell proliferation assay, polyclonal T cell line 496.1.2
Description: as §1

[10] = test system: intestinal T cell line 451.1.1; assay: T cell proliferation assay, polyclonal T cell line 451.1.1
Description: as §1

[11] = test system: intestinal T cell line 446.1.3; assay: T cell proliferation assay, polyclonal T cell line 446.1.3
Description: as §1

[12] = test system: intestinal T cell line 422.4.2; assay: T cell proliferation assay, polyclonal T cell line 422.4.2
Description: as §1

[13] = test system: intestinal T cell line 437.1.3; assay: T cell proliferation assay, polyclonal T cell line 437.1.3
Description: as §1

[14] = test system: intestinal T cell line 421.1.4; assay: T cell proliferation assay, polyclonal T cell line 421.1.4
Description: as §1

Substance	Response to TG2-treated gluten peptides (stimulatory index) [1]	Response to TG2-treated gluten peptides (stimulatory index) [2]	Response to TG2-treated gluten peptides (stimulatory index) [3]	Response to TG2-treated gluten peptides (stimulatory index) [4]	Response to TG2-treated gluten peptides (stimulatory index) [5]	Response to TG2-treated gluten peptides (stimulatory index) [6]	Response to TG2-treated gluten peptides (stimulatory index) [7]	Response to TG2-treated gluten peptides (stimulatory index) [8]	Response to TG2-treated gluten peptides (stimulatory index) [9]	Response to TG2-treated gluten peptides (stimulatory index) [10]	Response to TG2-treated gluten peptides (stimulatory index) [11]	Response to TG2-treated gluten peptides (stimulatory index) [12]	Response to TG2-treated gluten peptides (stimulatory index) [13]	Response to TG2-treated gluten peptides (stimulatory index) [14]
LQPQQPFPQQPQQPYPQQPQ [γ-III and γ-VI]	+ (Stimulatory index (SI; T + APC + TG2-treated peptide divided by T + APC) of 3-10)	++ (SI above 10)	−	+ (Stimulatory index (SI; T + APC + TG2-treated peptide divided by T + APC) of 3-10)	−	−	−	+ (Stimulatory index (SI; T + APC + TG2-treated peptide divided by T + APC) of 3-10)	+ (Stimulatory index (SI; T + APC + TG2-treated peptide divided by T + APC) of 3-10)	−	−	−	−	+ (Stimulatory index (SI; T + APC + TG2-treated peptide divided by T + APC) of 3-10)
PQPQLPYPQPQLPY [α-II]	+ (Stimulatory index (SI; T + APC + TG2-treated peptide divided by T + APC) of 3-10)	++ (SI above 10)	+ (Stimulatory index (SI; T + APC + TG2-treated peptide divided by T + APC) of 3-10)	++ (SI above 10)	+ (Stimulatory index (SI; T + APC + TG2-treated peptide divided by T + APC) of 3-10)	++ (SI above 10)	++ (SI above 10)	+ (Stimulatory index (SI; T + APC + TG2-treated peptide divided by T + APC) of 3-10)	+ (Stimulatory index (SI; T + APC + TG2-treated peptide divided by T + APC) of 3-10)	+ (Stimulatory index (SI; T + APC + TG2-treated peptide divided by T + APC) of 3-10)	++ (SI above 10)	++ (SI above 10)	+ (Stimulatory index (SI; T + APC + TG2-treated peptide divided by T + APC) of 3-10)	+ (Stimulatory index (SI; T + APC + TG2-treated peptide divided by T + APC) of 3-10)
QPQQPQQSFPQQQRP [γ-I]	−	−	−	−	−	+ (Stimulatory index (SI; T + APC + TG2-treated peptide divided by T + APC) of 3-10)	+ (Stimulatory index (SI; T + APC + TG2-treated peptide divided by T + APC) of 3-10)	−	−	−	−	−	+ (Stimulatory index (SI; T + APC + TG2-treated peptide divided by T + APC) of 3-10)	−
QQxSQPQxPQQQQxPQQPQQF [Glu-5]	−	−	−	−	−	−	+ (Stimulatory index (SI; T + APC + TG2-treated peptide divided by T + APC) of 3-10)	−	−	−	+ (Stimulatory index (SI; T + APC + TG2-treated peptide divided by T + APC) of 3-10)	−	−	−
QLQPFPQPQLPY [α-I]	++ (SI above 10)	+ (Stimulatory index (SI; T + APC + TG2-treated peptide divided by T + APC) of 3-10)	−	+ (Stimulatory index (SI; T + APC + TG2-treated peptide divided by T + APC) of 3-10)	−	−	+ (Stimulatory index (SI; T + APC + TG2-treated peptide divided by T + APC) of 3-10)	−	++ (SI above 10)	−	+ (Stimulatory index (SI; T + APC + TG2-treated peptide divided by T + APC) of 3-10)	+ (Stimulatory index (SI; T + APC + TG2-treated peptide divided by T + APC) of 3-10)	+ (Stimulatory index (SI; T + APC + TG2-treated peptide divided by T + APC) of 3-10)	−
